From patent US20180282818A1, “Therapeutic Cancer Treatments Based on TP53 Gene Mutations” (The Wistar Institute of Anatomy and Biology, priority 2015, published 2018) come the findings set out here.

The structures appear in SMILES notation.

Common to all, as to assay type: cell-based
One experiment concerns S47 cells. Briefly: Resazurin cytotoxicity screening, S47 cells. The following applies: for EC50: S47 cells, 72 hours, resazurin fluorescence, normalized to doxorubicin and DMSO; for Fold-resistant, S47 / Fold-sensitive, S47: S47 versus WT EC50. Here is the method: (§1) The screening methods were performed as follows. S47 and wild type cells were plated at a density of 750 cells/well in a total volume of 50 μL in 384 well Greiner microplates. The cells were allowed to attach overnight at 37° C. and then dosed with 50 nL of compound serially diluted in DMSO. Following compound addition, the assay plates were incubated at 37° C. for 72 hours, followed by the addition of 5 μL of […] Resazurin. The plates were incubated at 37° C. for 8-10 hours and then fluorescence was measured using a Perkin Elmer Envision plate reader (excitation at 530-560 nm, emission at 590 nm). Raw fluorescent counts were uploaded into Spotfire and normalized to doxorubicin (positive control) and DMSO (negative control) treated wells (n=12/plate). EC50 values were calculated by applying a logistic regression curve fit and expressed as μM compound that was effective in killing 50% of the cell population at 72 hours.

A further experiment has as its system wild type cells. Briefly: Resazurin cytotoxicity screening, wild type cells. To be noted: 72 hours, resazurin fluorescence, normalized to doxorubicin and DMSO, read-out: WT EC50. As for the experimental part:
as §1

For the next experiment, the system named is S47 tumor cells. The experiment is described as follows: Sensitivity of E1A/Ras-transformed S47 tumor cells compared to WT cells. The following applies: S47 and WT cells expressing E1A/Ras. As for the experimental part: S47 and WT cells expressing E1A/Ras were analyzed.
A tumorigenic (transformed) version of WT and S47 cells may be created as follows. WT and S47 cells were transfected with two oncogenes (E1A and Ras).

With `Cc1cn(-c2cc(NC(=O)c3ccc(C)c(Nc4nccc(-c5cccnc5)n4)c3)cc(C(F)(F)F)c2)cn1` [AMN107], in the experiment on S47 cells, the EC50 is more than 10 µM and the “Fold-resistant, S47” value is reported as 28. In the experiment on wild type cells, the EC50 came out at 0.353 µM.
For `C[C@@H]1COCCN1c1cc(C2([S@](C)(=N)=O)CC2)nc(-c2cc[nH]c3nccc2-3)n1` [AZD6738] the same measures were more than 10 µM, 26 and 0.377 µM.
Regarding `N.N.[Cl][Pt][Cl]` [Cisplatin, (SP-4-2)-diamminedichloroplatinum(II)], in the experiment on S47 cells, it took 0.79 µM to reach a half-maximal effect (EC50) and the “Fold-resistant, S47” value is on record as 2.3. The EC50 in the experiment on wild type cells stood at 0.348 µM. The “Sensitivity of S47 tumor cells compared to WT cells” value (shortened to “Sensitivity … compared to WT cells”) in the experiment on S47 tumor cells was “more sensitive”.
On to `COc1cccc2c1C(=O)c1c(O)c3c(c(O)c1C2=O)C[C@@](O)(C(=O)CO)C[C@@H]3O[C@H]1C[C@H](N)[C@H](O)[C@H](C)O1` [Doxorubicin], for which, in the experiment with S47 cells, the response was half-maximal at 0.292 µM (EC50) and the “Fold-resistant, S47” value amounted to 2. Further, the EC50 in the experiment on wild type cells was found to be 0.146 µM.
For `CS(=O)(=O)N1CCN(Cc2cc3nc(-c4cccc5[nH]ncc45)nc(N4CCOCC4)c3s2)CC1` [GDC0941, 2-(1H-indazol-4-yl)-6-((4-(methylsulfonyl)piperazin-1-yl)methyl)-4-morpholinothieno[3,2-d]pyrimidine], in the experiment with S47 cells, the EC50 worked out at 0.012 µM and the “Fold-sensitive, S47” value is reported as 2.33. Besides, the EC50 in the experiment on wild type cells turned out to be 0.028 µM.
For `COc1ncc(-c2ccc3nccc(-c4ccnnc4)c3c2)cc1NS(=O)(=O)c1ccc(F)cc1F` [GSK2126458, 2,4-difluoro-N-(2-methoxy-5-(4-(pyridazin-4-yl)quinolin-6-yl)pyridin-3-yl)benzenesulfonamide], in the experiment on S47 cells, the concentration for a half-maximal effect (EC50) was 0.00046 µM and the “Fold-sensitive, S47” value is 3.26. Besides, in the experiment on wild type cells, the EC50 amounted to 0.0015 µM.
The like results for `CC(C)n1nc(-c2ccc3oc(N)nc3c2)c2c(N)ncnc21` [INK128, 5-(4-amino-1-isopropyl-1H-pyrazolo[3 ,4-d]pyrimidin-3-yl)benzo[d]oxazol-2-amine] were, in that order, 0.0095 µM, 1.5 and 0.0145 µM.
In the case of `Cc1[nH]c2ccccc2c1CCNCc1ccc(/C=C/C(=O)NO)cc1` [LBH589], in the experiment with S47 cells, a half-maximal effect (EC50) was put at 0.0066 µM and the “Fold-resistant, S47” value was 2. For the same molecule, in the experiment on wild type cells, the EC50 stood at 0.0032 µM.
As to `COc1cccc2cc(-c3nc([C@H]4CC[C@H](C(=O)O)CC4)n4ncnc(N)c34)[nH]c12` [OSI027, trans-4-[4-amino-5-(7-methoxy-1H-indol-2-yl)imidazo[5,1-f][1,2,4]triazin-7-yl]cyclohexanecarboxylic acid], in the experiment on S47 cells, the EC50 was determined as 0.173 µM and the “Fold-sensitive, S47” value worked out at 4.3. The EC50 in the experiment with wild type cells was 0.745 µM. Further, the “Sensitivity … compared to WT cells” value in the experiment with S47 tumor cells was “more sensitive”.
On to `CC[C@@]1(O)C(=O)OCc2c1cc1n(c2=O)Cc2cc3ccccc3nc2-1` [camptothecin], for which, in the experiment on S47 tumor cells, the “Sensitivity … compared to WT cells” value was “less sensitive”.
